Tested on: collagen type I synthesis in normal adult human fibroblasts
Assay: Immunolocalization of collagen type I in normal adult human fibroblasts (immunofluorescence, image analysis)
Format: cell-based
Details: 2×10^−3% palmitoyl lysine-valine-5 diaminohydroxybutyrate (P1), 72 hours, Anova
Procedure: The fibroblasts were seeded into 6-well plates with a glass coverslip in a proportion of 70 000 cells per dish, in MEM (Minimum Essential Medium). […] Each cell layer was then rinsed and fixed with methanol (−20° C.) before visualizing the collagen type I by immunofluorescence. […] The incubation time between each antibody is 1 hour. The cell nuclei are visualized by means of Dapi labeling. The coverslips are mounted on glass slides and then observed under a fluorescence microscope (Nikon Eclipse 50i). Photographs are taken of several fields of the cell population. The TRITC fluorescence images indicate the regions of localization of collagen type I. The DAPI fluorescence images indicate the cell nuclei and therefore the number of cells per field. The photographic images are analyzed using the Lucia image analysis software. The intensity of collagen labeling was observed on 14 and 15 photographic images according to the conditions. This fluorescence intensity is related to the number of cells per image. The differences in mean between the populations were studied by analysis of variance (Anova). This method uses measurements of variance in order to determine the significant or nonsignificant nature of the differences in mean measured on the populations.

palmitoyl lysine-valine-5 diaminohydroxybutyrate
collagen type I labeling (fluorescence intensity related to the number of cells) compared with the nontreated control: statistically significant (p<0.0001) increase in collagen

From US20110144565A1, “COMBINATION OF A TILIROSIDE AND A PEPTIDE” (LABORATOIRES CLARINS, priority 2008, published 2011)
